Assay results: ChEMBL document CHEMBL5303711, “ECBD screening data for assay EOS300108” (2023)
Where a name gives a salt, the structure may show the parent alone. Active and inactive are the calls of the source. How the calls were made is not given here.

assay: Cytotoxicity activity against human HepG2 cells assessed by CellTiter-Glo luminescent cell viability assay.; assay type: toxicity, cell-based; design: assay stage confirmatory assay, source tissue liver; settings: HepG2 cells, read-out: IC50 relative

| Compound | CC50 |
| --- | --- |
| COc1cc2ncnc(Nc3cccc(Cl)c3)c2cc1OC [TYRPHOSTIN AG-1478] | 8.3 µM (active) |
| Cc1cc(N)c2ccccc2[n+]1CCCCCCCCCC[n+]1c(C)cc(N)c2ccccc21 [DEQUALINIUM CHLORIDE] | 14.4 µM (inactive) |
| CCN(CC)Cc1ccccc1CNC(=O)N(CC)C[C@H]1COc2ccccc2O1 | 10.8 µM (active) |
| COc1ccc2c(c1)cc(C(=O)N[C@@H](C)C(=O)N1CCN(Cc3ccccc3)CC1)n2C | 13.1 µM (inactive) |
| O=C(Nc1nc2cc(C(F)(F)F)ccc2[nH]1)C1=COCCO1 | 7.1 µM (active) |
| O=S(=O)(NCCNC/C=C/c1ccc(Br)cc1)c1cccc2cnccc12 | 9.7 µM (active) |
| CN1CCN(Cc2ccc(-c3cnc4[nH]cc(-c5ccc6[nH]ccc6c5)c4c3)cc2)CC1 | 1.4 µM (active) |
| CCn1cc(-c2cccc(C(F)(F)F)c2)c2sc(C(=N)NC3CCS(=O)(=O)CC3)cc2c1=O | 11.1 µM (active) |
| O=C(Nc1cnccc1Cl)N1CCN(Cc2ccc3c(c2)OC(F)(F)O3)CC1 [JNJ-42165279] | 11.9 µM (inactive) |
| C[C@@H]1C[C@@H]([C@H](O)CC2CC(=O)NC(=O)C2)C(=O)[C@@H](C)C1 [CYCLOHEXIMIDE] | 0.4 µM (active) |
| Cc1ccc(CN2CCN(C3CCNC3)CC2)c(Cl)c1Cl (stereo not given) | 7.7 µM (active) |
| CC(=O)N1CCN(c2ccc(OC[C@@H]3CO[C@@](Cn4ccnc4)(c4ccc(Cl)cc4Cl)O3)cc2)CC1 [LEVOKETOCONAZOLE] | 11.6 µM (active) |
| COc1cc(CNCCN(C)C)ccc1OCc1ccc(F)cc1 | 13.1 µM (active) |
| NCCNS(=O)(=O)c1cccc2cnccc12 | 13.2 µM (inactive) |
| CC(C)CNC(=O)N1CC(Oc2ccc(-c3noc(-c4cccnc4)n3)cc2)C1 | 5.4 µM (active) |
| N#CCCn1c(=O)c(C(=O)NCCCc2ccccc2)c(O)c2ccccc21 | 5.9 µM (active) |
| c1cc(N2CCC[C@H]2C2CCCCC2)nc(C2CC2)n1 | 11.8 µM (active) |
| FC(F)(F)c1ccc(CNc2ccc(Cc3c[nH]c4ncc(Cl)cc34)cn2)cn1 [PEXIDARTINIB] | 5.2 µM (active) |
| CCc1nnsc1C(=O)Nc1cc(-c2cccs2)n[nH]1 | 4.8 µM (active) |
| COc1cccc(N2CCN(C(=O)C3CCN(c4nc5cccnc5n(C)c4=O)CC3)CC2)c1 | 4.4 µM (active) |
| COc1cc(F)cc2sc(NC(=O)c3cc(N4CCOCC4)ccn3)nc12 | 48.8 µM (inactive) |
| C[C@@H]1CN(Cc2ccc(F)cc2)CCN1C(=O)COc1ccc(Cl)cc1NC(N)=O [BX 471 FREE BASE] | 4.8 µM (active) |

| Compound | CC50 |
| --- | --- |
| CCCS(=O)(=O)Nc1ccc(Nc2nc(C)cc(N(CC)CC)n2)cc1 | 6.4 µM (active) |
| O=C(NCCN1CCCC1)C1CCN(c2nn3cc(-c4ccc(F)cc4)nc3s2)CC1 | 2.7 µM (active) |
| CC[C@H]1c2ccsc2CCN1C(=O)c1cc(OC)cc(OC)c1 | 13 µM (active) |
| CNc1snc(C)c1C(=O)N[C@@H](C)c1ccc2c(c1)OCCCO2 | 4.2 µM (active) |
| Cc1nc2n(c(=O)c1C)CN(CCCO)CN2c1ccc(Cl)cc1Cl | 50 µM (inactive) |
| NC1(Cc2ccc(Cl)cc2)CCN(c2ncnc3[nH]ccc23)CC1 | 6.7 µM (active) |
| COc1cc(-c2nnc(SC3=CS(=O)(=O)c4ccccc43)o2)cc(OC)c1OC | 2.5 µM (active) |
| Cc1cc(=O)n2nc(Sc3ncc4ccccn34)sc2n1 | 12.1 µM (active) |
| CCn1c(=O)c(-c2ccc(-c3cncs3)cc2Cl)cc2cnc(Nc3ccc(N4CCN(C)CC4)cc3)nc21 | 29 µM (inactive) |
| CN(C)Cc1ccc(C(=O)Nc2nc3c(s2)CCCC3)cc1 | 11.3 µM (active) |
| Cc1nc(NC(=O)c2cc(Br)cn2C)sc1C | 1 µM (active) |
| CCS(=O)(=O)Nc1ccc(Oc2ccc(F)cc2F)c(-c2cn(C)c(=O)c3[nH]ccc23)c1 [MIVEBRESIB] | 0.3 µM (active) |
| O=C1NCCN1CCN1CCC(c2cn(-c3ccc(F)cc3)c3ccc(Cl)cc23)CC1 [SERTINDOLE] | 2.7 µM (active) |
| CCN(C(=O)c1c[nH]n2c1nc(=O)c1ccccc12)[C@@H](C)c1ccc(F)cc1 | 5 µM (active) |
| CN1CCN(Cc2ccc(NC(=O)c3n[nH]cc3Nc3ncnc4[nH]ccc34)cc2)CC1 | 1.1 µM (active) |
| O=S(=O)(c1ccc(N2CCN(c3ncnc4c3oc3ccccc34)CC2)nc1)N1CCOCC1 | 3.3 µM (active) |
| O=S1(=O)CCCN1c1ccc(CNc2ncnc3ccccc23)cc1F | 2.2 µM (active) |
| Cc1noc2ncnc(N3CCC(C(=O)N4CCc5ccccc54)CC3)c12 | 10.9 µM (active) |
| COc1ccc([C@@H]2CCCN2c2cnn(C(C)(C)C)c(=O)c2Cl)cc1 | 11.1 µM (active) |
| CCCCNc1ncc(C(=O)NCc2ccc(-n3ccnc3)cc2)c(N[C@H]2CC[C@H](O)CC2)n1 | 2.8 µM (active) |
| CC(C)Oc1cc(O)c2c(=O)c(-c3ccc(O)cc3)coc2c1 | 15.6 µM (active) |
| NCc1ccc(C(=O)NC2CCc3c[nH]nc3C2)cc1 (stereo not given) | 9.4 µM (active) |

| Compound | CC50 |
| --- | --- |
| Cc1cc(O)c(-c2ccc([C@@H](C)CN(C)C)cc2)c2c1[nH]c(=O)c1sccc12 | 0.1 µM (active) |
| C#Cc1cccc(Nc2ncnc3cc(OC)c(OCCCCCCC(=O)NO)cc23)c1 [CUDC-101] | 0.5 µM (active) |
| O=C(Nc1cccc(Cl)c1O)c1sccc1Br | 0.8 µM (active) |
| CC(NC(=O)N1CCCN(C)C2(CCNCC2)C1)c1ccccc1Cl (stereo not given) | 4.3 µM (active) |
| Cc1cc(C)cc(NC(=O)CC2CCCN(c3cn[nH]c(=O)c3)C2)c1 (stereo not given) | 2.4 µM (active) |
| Cn1cncc1C(=O)N1CCCN(Cc2ccccc2)c2ccccc21 | 11.5 µM (inactive) |
| CN(C)c1ccc(Cl)cc1NC(=O)c1cn(CCC2CCCCN2)nn1 (stereo not given) | 6.8 µM (active) |
| O=C1NCCc2[nH]c(-c3ccncc3)cc21 | 0.9 µM (active) |
| COCCN1CCN(Cc2ccc(-c3n[nH]c4c3C(=O)c3c(NC(=O)NN5CCOCC5)cccc3-4)cc2)CC1 [RGB-286638] | 0.2 µM (active) |
| O=C1COc2c(CCNCCN(C(=O)CCNCCc3ccc(Cl)c(Cl)c3)C3CCCCC3)ccc(O)c2N1 | 10.5 µM (active) |
| COCC(=O)O[C@]1(CCN(C)CCCc2nc3ccccc3[nH]2)CCc2cc(F)ccc2[C@@H]1C(C)C [MIBEFRADIL DIHYDROCHLORIDE] | 3.1 µM (active) |
| NCC1CCN(c2nccc(-c3ccc4ccccc4c3)n2)CC1 | 4.4 µM (active) |
| Cc1ccc(Cc2cnc(NC(=O)NC[C@H](C)CN3CCN(C)CC3)s2)cc1 | 7.6 µM (active) |
| CN(C)CCCOc1ccc(-c2ccc3ncc4c(c3c2)n(C2CCOCC2)c(=O)n4C)cn1 | 7.4 µM (active) |
| CC(C)c1cnn2c(NCc3ccccc3)cc(NC[C@H]3CCNC[C@@H]3O)nc12 | 0.8 µM (active) |
| COc1cc(NCc2ccc3nc(N)nc(N)c3c2C)cc(OC)c1OC [TRIMETREXATE] | 1.7 µM (active) |
| CC(C)[C@H](NCC(=O)N1CCN(c2ccccn2)CC1)c1ccc(Cl)cc1 | 8 µM (active) |
| CCc1ccc(NC(=O)c2nc(S(C)(=O)=O)ncc2Br)cc1 | 3 µM (active) |
| CN[C@H](C(=O)N[C@H](C(=O)N(C)[C@H](/C=C(\C)C(=O)O)C(C)C)C(C)(C)C)C(C)(C)c1ccccc1 [TALTOBULIN] | 0.2 µM (active) |
| COc1ccc(CN2CCN(CCSC)CC2)c2c(OC)cccc12 | 12.6 µM (inactive) |
| NC(=O)c1coc(-c2csc(-c3ccccc3O)n2)c1 | 2.5 µM (active) |
